Laboratory results from patent US20250049736A1, “SULFONAMIDE DERIVATIVES AND THEIR USE AS SOLUBLE EPOXIDE HYDROLASE INHIBITORS” (THE UNITED STATES OF AMERICA, AS REPRESENTED BY THE …, priority 2021, published 2025).

Columns and labels:
human sEH = human sEH (Homo sapiens (Human), UniProt P34913); experiment: Fluorescence-based sEH inhibitor screening assay (PHOME substrate); assay type: biochemical; conditions: dose-dependent fluorescence assay
Protocol: Fluorescence-based sEH inhibitor screening assay provided a convenient method for screening human epoxide hydrolase inhibitors. The assay utilized (3-phenyl-oxiranyl)-acetic acid cyano-(6-methoxy-naphthalen-2-yl)-methyl ester (PHOME) as substrate. […] The cyanohydrin quickly decomposed into cyanide ion and the highly fluorescent 6-methoxy-2-naphthaldehyde which was analyzed using an excitation wavelength of 330 nm and emission wavelength of 465 nm after a 30-minute reaction time in darkness.
The background AF was subtracted from the 100% initial activity and inhibitor AFs.

Plasma protein [1] = experiment: Plasma protein binding, human; assay type: in vitro ADME
[2] = Metabolic stability, mouse; assay type: in vitro ADME
Plasma protein [3] = experiment: Plasma protein binding, mouse; assay type: in vitro ADME
[4] = Metabolic stability, human; assay type: in vitro ADME
[5] = target: inducible nitric oxide synthase (iNOS) (Mus musculus (Mouse), UniProt P29477); experiment: iNOS inhibition primary assay; assay type: biochemical; conditions: 10 μM of each compound; mouse cell line
Protocol: Biochemical assay results are presented as the percent inhibition of specific binding or activity. The concentration of each compound was 10 μM.

Caco-2 = Caco-2 permeability; assay type: in vitro ADME
[6] = Aqueous solubility @ pH 7.4; assay type: physicochemical

Chain of human sEH (P34913 whole entry): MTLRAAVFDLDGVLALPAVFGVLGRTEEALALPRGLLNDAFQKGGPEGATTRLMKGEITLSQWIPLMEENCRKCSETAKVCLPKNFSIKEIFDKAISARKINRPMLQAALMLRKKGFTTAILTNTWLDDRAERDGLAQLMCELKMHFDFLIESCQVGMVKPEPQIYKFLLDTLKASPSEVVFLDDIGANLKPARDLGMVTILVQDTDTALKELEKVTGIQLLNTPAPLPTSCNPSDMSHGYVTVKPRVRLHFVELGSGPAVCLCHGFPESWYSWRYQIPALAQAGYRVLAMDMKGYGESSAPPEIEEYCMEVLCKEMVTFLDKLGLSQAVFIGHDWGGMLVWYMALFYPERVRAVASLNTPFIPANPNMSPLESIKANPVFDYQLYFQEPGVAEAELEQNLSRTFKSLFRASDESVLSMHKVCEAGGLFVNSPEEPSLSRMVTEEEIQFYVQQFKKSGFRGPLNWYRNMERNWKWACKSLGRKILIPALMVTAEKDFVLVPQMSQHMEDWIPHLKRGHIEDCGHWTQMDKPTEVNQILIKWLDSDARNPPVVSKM

## O=S(=O)(NC(=S)NC12CC3CC(CC(C3)C1)C2)c1ccc(OC(F)(F)F)cc1 [Compound 11d, N-(((3s,5s,7s)-adamantan-1-yl)carbamothioyl)-4-(trifluoromethoxy)benzenesulfonamide]
Human sEH
  IC50: 4.66 nM

## O=C(NC12CC3CC(CC(C3)C1)C2)NS(=O)(=O)c1ccc2ccccc2c1 [Compound 5e]
Plasma protein [1]
  Plasma protein binding % of stability: 99%
[2]
  Metabolic stability Half life: 2.2 min
  Metabolic stability % remaining after 1 h: 0%
Plasma protein [3]
  Plasma protein binding % of bound comp: 98%
  Plasma protein binding % of stability: 88%
Human sEH
  IC50: 1.21 nM
[4]
  Metabolic stability Half life: 33.4 min
  Metabolic stability % remaining after 1 h: 45%

## C[Se]C(=N)NC(=NS(=O)(=O)c1ccc(C#N)cc1)NC12CC3CC(CC(C3)C1)C2 [Compound 9h, methyl N—N′-((3s,5s,7s)-adamantan-1-yl)-N′-((4-cyanophenyl)-sulfonyl)carbamimidoyl)carbamimidoselenoate]
[5]
  % iNOS inhibition: 93%

## O=C(NC12CC3CC(CC(C3)C1)C2)NS(=O)(=O)c1ccccc1 [Compound 5d, N-(((3s,5s,7s)-adamantan-1-yl)carbamoyl)benzenesulfonamide]
Human sEH
  IC50: 104 nM

## C[Se]C(=N)NC(=NS(=O)(=O)c1ccc(C(C)(C)C)cc1)NC12CC3CC(CC(C3)C1)C2 [Compound 9b, methyl N—N′-((3s,5s,7s)-adamantan-1-yl)-N′-((4-(tert-butyl)phenyl)sulfonyl)carbamimidoyl)carbamimidoselenoate]
[5]
  % iNOS inhibition: 95%

## C/C(N)=N\C(=N\S(=O)(=O)c1ccc(OC(F)(F)F)cc1)NC12CC3CC(CC(C3)C1)C2 [Compound 7i]
Human sEH
  IC50: 9.89 nM

## COc1ccc(S(=O)(=O)/N=C(\N=C(/N)[Se]C)NC23CC4CC(CC(C4)C2)C3)cc1 [Compound 9c]
[5]
  % iNOS inhibition: 94%

## C[Se]C(=N)NC(=NS(=O)(=O)c1ccc(C(F)(F)F)cc1)NC12CC3CC(CC(C3)C1)C2 [Compound 9j, methyl N—N′-((3s,5s,7s)-adamantan-1-yl)-N′-((4-(trifluoromethyl)phenyl)sulfonyl)carbamimidoyl)carbamimidoselenoate]
[5]
  % iNOS inhibition: 90%

## NN/C(=N/S(=O)(=O)c1ccc(OC(F)(F)F)cc1)NC12CC3CC(CC(C3)C1)C2 [Compound 13i]
Human sEH
  IC50: 154 nM

## C[Se]/C(N)=N/C(=NS(=O)(=O)c1ccc(OC(F)(F)F)cc1)NC12CC3CC(CC(C3)C1)C2 [Compound 9i]
[5]
  % iNOS inhibition: 87%
Human sEH
  IC50: 3.84 nM

## CSC(=N)NC(=NS(=O)(=O)c1ccc(C(C)(C)C)cc1)NC12CC3CC(CC(C3)C1)C2 [Compound 8b, methyl N—N′-((3s,5s,7s)-adamantan-1-yl)-N′-((4-(tert-butyl)phenyl)sulfonyl)carbamimidoyl)carbamimidothioate]
[5]
  % iNOS inhibition: 52%

## O=C(NC12CC3CC(CC(C3)C1)C2)NS(=O)(=O)c1ccc(OC(F)(F)F)cc1 [Compound 5i, N-(((3s,5s,7s)-adamantan-1-yl)carbamoyl)-4-(trifluoromethoxy)benzenesulfonamide]
Plasma protein [1]
  Plasma protein binding % of stability: 99%
Caco-2; Caco-2
  Efflux ratio: 0.8
Caco-2; apical to basal
  Caco-2 permeability Aical to Basal (Papp): 14.9 cm/sec (10^−6)
Caco-2; basal to apical
  Caco-2 permeability Basal to Apical (Papp): 12.6 cm/sec (10^−6)
[2]
  Metabolic stability Half life: 4.9 min
  Metabolic stability % remaining after 1 h: 0%
Plasma protein [3]
  Plasma protein binding % of bound comp: 98%
[6]
  Aqueous Solubility @ pH 7.4: 53 μg/mL
Human sEH
  IC50: 1.69 nM
[4]
  Metabolic stability Half life: 106.3 min
  Metabolic stability % remaining after 1 h: 80%

## CS/C(N)=N/C(=NS(=O)(=O)c1ccc(OC(F)(F)F)cc1)NC12CC3CC(CC(C3)C1)C2 [Compound 8i]
Human sEH
  IC50: 1.02 nM

## O=S(=O)(NC(=S)NC12CC3CC(CC(C3)C1)C2)c1ccccc1 [Compound 11c, N-(((3s,5s,7s)-adamantan-1-yl)carbamothioyl)benzenesulfonamide]
Human sEH
  IC50: 131 nM
